Key:
CCRF-CEM = experiment: NCI-60 anticancer screening (SRB); assay type: cell-based; conditions: Homo sapiens, leukemia, one dose 10 μM, read-out: Growth Inhibition Percentage (GI %)
K-562 = experiment: NCI-60 anticancer screening (SRB); assay type: cell-based; conditions: Homo sapiens, K562; K-562, leukemia; one dose 10 μM; read-out: Growth Inhibition Percentage (GI %)
RPMI-8226 = experiment: NCI-60 anticancer screening (SRB); assay type: cell-based; conditions: Homo sapiens; RPMI-8226, leukemia; one dose 10 μM; read-out: Growth Inhibition Percentage (GI %)
SR = experiment: NCI-60 anticancer screening (SRB); assay type: cell-based; conditions: Homo sapiens, leukemia, one dose 10 μM, read-out: Growth Inhibition Percentage (GI %)
A549/ATCC = experiment: NCI-60 anticancer screening (SRB); assay type: cell-based; conditions: Homo sapiens; A549/ATCC, NSC lung cancer; one dose 10 μM; read-out: Growth Inhibition Percentage (GI %)
EKVX = experiment: NCI-60 anticancer screening (SRB); assay type: cell-based; conditions: Homo sapiens, NSC lung cancer, one dose 10 μM, read-out: Growth Inhibition Percentage (GI %)
HOP-92 = experiment: NCI-60 anticancer screening (SRB); assay type: cell-based; conditions: Homo sapiens; HOP-92, NSC lung cancer; one dose 10 μM; read-out: Growth Inhibition Percentage (GI %)
NCI-H226 = experiment: NCI-60 anticancer screening (SRB); assay type: cell-based; conditions: Homo sapiens; NCI-H226, NSC lung cancer; one dose 10 μM; read-out: Growth Inhibition Percentage (GI %)
HCT-116 = experiment: NCI-60 anticancer screening (SRB); assay type: cell-based; conditions: Homo sapiens; HCT-116, colon cancer; one dose 10 μM; read-out: Growth Inhibition Percentage (GI %)
HCT-15 = experiment: NCI-60 anticancer screening (SRB); assay type: cell-based; conditions: Homo sapiens; HCT-15, colon cancer; one dose 10 μM; read-out: Growth Inhibition Percentage (GI %)
SF-268 = experiment: NCI-60 anticancer screening (SRB); assay type: cell-based; conditions: Homo sapiens; SF-268, CNS cancer; one dose 10 μM; read-out: Growth Inhibition Percentage (GI %)
SF-295 = experiment: NCI-60 anticancer screening (SRB); assay type: cell-based; conditions: Homo sapiens; SF-295, CNS cancer; one dose 10 μM; read-out: Growth Inhibition Percentage (GI %)
SF-539 = experiment: NCI-60 anticancer screening (SRB); assay type: cell-based; conditions: Homo sapiens; SF-539, CNS cancer; one dose 10 μM; read-out: Growth Inhibition Percentage (GI %)
SNB-19 = experiment: NCI-60 anticancer screening (SRB); assay type: cell-based; conditions: Homo sapiens; SNB-19, CNS cancer; one dose 10 μM; read-out: Growth Inhibition Percentage (GI %)
SNB-75 = experiment: NCI-60 anticancer screening (SRB); assay type: cell-based; conditions: Homo sapiens; SNB-75, CNS cancer; one dose 10 μM; read-out: Growth Inhibition Percentage (GI %)
U251 = experiment: NCI-60 anticancer screening (SRB); assay type: cell-based; conditions: Homo sapiens, U-251; U251, CNS cancer; one dose 10 μM; read-out: Growth Inhibition Percentage (GI %)
MALME-3M = experiment: NCI-60 anticancer screening (SRB); assay type: cell-based; conditions: Homo sapiens, melanoma, one dose 10 μM, read-out: Growth Inhibition Percentage (GI %)
MDA-MB-435 = experiment: NCI-60 anticancer screening (SRB); assay type: cell-based; conditions: Homo sapiens; MDA-MB-435, melanoma; one dose 10 μM; read-out: Growth Inhibition Percentage (GI %)
SK-MEL-28 = experiment: NCI-60 anticancer screening (SRB); assay type: cell-based; conditions: Homo sapiens; SK-MEL-28, melanoma; one dose 10 μM; read-out: Growth Inhibition Percentage (GI %)
UACC-257 = experiment: NCI-60 anticancer screening (SRB); assay type: cell-based; conditions: Homo sapiens; UACC-257, melanoma; one dose 10 μM; read-out: Growth Inhibition Percentage (GI %)
IGROV1 = experiment: NCI-60 anticancer screening (SRB); assay type: cell-based; conditions: Homo sapiens, IGROV-1; IGROV1, ovarian cancer; one dose 10 μM; read-out: Growth Inhibition Percentage (GI %)
OVCAR-5 = experiment: NCI-60 anticancer screening (SRB); assay type: cell-based; conditions: Homo sapiens; OVCAR-5, ovarian cancer; one dose 10 μM; read-out: Growth Inhibition Percentage (GI %)
OVCAR-8 = experiment: NCI-60 anticancer screening (SRB); assay type: cell-based; conditions: Homo sapiens; OVCAR-8, ovarian cancer; one dose 10 μM; read-out: Growth Inhibition Percentage (GI %)
SK-OV-3 = experiment: NCI-60 anticancer screening (SRB); assay type: cell-based; conditions: Homo sapiens; SK-OV-3, ovarian cancer; one dose 10 μM; read-out: Growth Inhibition Percentage (GI %)
ACHN = experiment: NCI-60 anticancer screening (SRB); assay type: cell-based; conditions: Homo sapiens, renal cancer, one dose 10 μM, read-out: Growth Inhibition Percentage (GI %)
PC-3 = experiment: NCI-60 anticancer screening (SRB); assay type: cell-based; conditions: Homo sapiens; PC-3, prostate cancer; one dose 10 μM; read-out: Growth Inhibition Percentage (GI %)
DU-145 = experiment: NCI-60 anticancer screening (SRB); assay type: cell-based; conditions: Homo sapiens; DU-145, prostate cancer; one dose 10 μM; read-out: Growth Inhibition Percentage (GI %)
MDA-MB-468 = experiment: NCI-60 anticancer screening (SRB); assay type: cell-based; conditions: Homo sapiens; MDA-MB-468, breast cancer; one dose 10 μM; read-out: Growth Inhibition Percentage (GI %)
EGFR^T790M = EGFR^T790M (Homo sapiens, UniProt P00533, T790M); experiment: biochemical
EGFR^L858R = EGFR^L858R (Homo sapiens, UniProt P00533, L858R); experiment: biochemical
EGFR^WT = EGFR^WT (Homo sapiens, UniProt P00533); experiment: EGFR kinase inhibitory assay (HTRF)
Chain of EGFR^WT (P00533 25-1210): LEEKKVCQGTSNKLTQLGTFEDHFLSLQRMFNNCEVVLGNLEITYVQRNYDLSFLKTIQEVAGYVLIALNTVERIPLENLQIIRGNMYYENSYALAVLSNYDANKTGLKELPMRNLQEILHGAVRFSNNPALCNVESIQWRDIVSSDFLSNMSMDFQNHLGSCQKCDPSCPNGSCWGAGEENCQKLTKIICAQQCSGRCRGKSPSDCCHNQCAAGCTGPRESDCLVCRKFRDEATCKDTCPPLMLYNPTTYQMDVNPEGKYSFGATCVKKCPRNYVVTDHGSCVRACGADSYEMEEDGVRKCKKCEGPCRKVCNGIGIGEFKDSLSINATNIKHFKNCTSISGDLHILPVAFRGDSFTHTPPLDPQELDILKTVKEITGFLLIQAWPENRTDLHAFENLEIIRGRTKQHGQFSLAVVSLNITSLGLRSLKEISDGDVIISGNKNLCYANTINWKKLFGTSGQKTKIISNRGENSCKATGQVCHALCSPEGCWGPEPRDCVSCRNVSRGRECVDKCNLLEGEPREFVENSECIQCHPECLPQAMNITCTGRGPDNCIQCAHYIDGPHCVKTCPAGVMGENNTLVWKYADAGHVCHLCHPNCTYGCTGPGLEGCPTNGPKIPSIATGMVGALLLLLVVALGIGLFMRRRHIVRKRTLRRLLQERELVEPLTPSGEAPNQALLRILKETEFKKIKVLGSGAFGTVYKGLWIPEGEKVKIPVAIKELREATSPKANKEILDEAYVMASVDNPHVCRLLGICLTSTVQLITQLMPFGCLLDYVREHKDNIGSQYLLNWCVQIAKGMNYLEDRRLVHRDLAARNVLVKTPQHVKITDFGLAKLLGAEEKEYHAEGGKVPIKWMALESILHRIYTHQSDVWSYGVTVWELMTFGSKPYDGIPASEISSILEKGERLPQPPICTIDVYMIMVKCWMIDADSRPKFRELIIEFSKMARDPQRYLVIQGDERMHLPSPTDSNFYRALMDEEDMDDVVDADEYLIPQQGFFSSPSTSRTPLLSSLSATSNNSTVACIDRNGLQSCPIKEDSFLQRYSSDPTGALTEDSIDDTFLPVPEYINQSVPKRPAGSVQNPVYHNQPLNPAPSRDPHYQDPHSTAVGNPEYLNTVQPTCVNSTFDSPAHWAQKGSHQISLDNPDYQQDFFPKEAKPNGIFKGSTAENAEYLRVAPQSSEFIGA

Chain of EGFR^T790M (P00533 25-1210 T790M): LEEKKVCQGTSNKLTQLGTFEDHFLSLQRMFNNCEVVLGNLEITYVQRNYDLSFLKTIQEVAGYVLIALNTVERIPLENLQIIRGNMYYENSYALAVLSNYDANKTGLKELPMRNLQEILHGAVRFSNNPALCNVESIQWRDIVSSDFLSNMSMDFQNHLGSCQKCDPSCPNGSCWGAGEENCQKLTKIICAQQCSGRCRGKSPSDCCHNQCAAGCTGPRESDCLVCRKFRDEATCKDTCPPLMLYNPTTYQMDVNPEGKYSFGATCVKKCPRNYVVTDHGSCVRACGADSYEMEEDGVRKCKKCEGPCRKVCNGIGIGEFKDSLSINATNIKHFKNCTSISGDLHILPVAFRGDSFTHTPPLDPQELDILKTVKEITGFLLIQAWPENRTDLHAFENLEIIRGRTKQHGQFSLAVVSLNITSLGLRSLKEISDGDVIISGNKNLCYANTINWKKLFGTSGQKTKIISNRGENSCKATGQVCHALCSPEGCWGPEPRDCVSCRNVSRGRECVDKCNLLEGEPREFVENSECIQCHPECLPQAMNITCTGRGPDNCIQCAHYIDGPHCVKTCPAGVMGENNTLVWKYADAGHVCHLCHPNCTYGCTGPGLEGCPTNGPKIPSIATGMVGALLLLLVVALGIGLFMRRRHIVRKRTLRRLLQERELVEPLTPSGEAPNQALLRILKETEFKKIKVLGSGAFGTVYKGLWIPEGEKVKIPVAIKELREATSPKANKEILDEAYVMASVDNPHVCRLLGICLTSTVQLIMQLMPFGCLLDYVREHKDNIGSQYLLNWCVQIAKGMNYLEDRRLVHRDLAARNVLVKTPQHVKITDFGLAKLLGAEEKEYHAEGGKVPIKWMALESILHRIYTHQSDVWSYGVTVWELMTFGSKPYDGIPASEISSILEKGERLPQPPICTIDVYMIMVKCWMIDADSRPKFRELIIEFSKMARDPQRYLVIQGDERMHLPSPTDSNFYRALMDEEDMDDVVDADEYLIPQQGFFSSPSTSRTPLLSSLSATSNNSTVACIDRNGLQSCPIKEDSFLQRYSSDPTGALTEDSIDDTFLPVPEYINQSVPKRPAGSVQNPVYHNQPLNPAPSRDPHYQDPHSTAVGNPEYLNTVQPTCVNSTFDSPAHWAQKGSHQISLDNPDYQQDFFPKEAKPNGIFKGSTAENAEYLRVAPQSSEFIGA
Chain of EGFR^L858R (P00533 25-1210 L858R): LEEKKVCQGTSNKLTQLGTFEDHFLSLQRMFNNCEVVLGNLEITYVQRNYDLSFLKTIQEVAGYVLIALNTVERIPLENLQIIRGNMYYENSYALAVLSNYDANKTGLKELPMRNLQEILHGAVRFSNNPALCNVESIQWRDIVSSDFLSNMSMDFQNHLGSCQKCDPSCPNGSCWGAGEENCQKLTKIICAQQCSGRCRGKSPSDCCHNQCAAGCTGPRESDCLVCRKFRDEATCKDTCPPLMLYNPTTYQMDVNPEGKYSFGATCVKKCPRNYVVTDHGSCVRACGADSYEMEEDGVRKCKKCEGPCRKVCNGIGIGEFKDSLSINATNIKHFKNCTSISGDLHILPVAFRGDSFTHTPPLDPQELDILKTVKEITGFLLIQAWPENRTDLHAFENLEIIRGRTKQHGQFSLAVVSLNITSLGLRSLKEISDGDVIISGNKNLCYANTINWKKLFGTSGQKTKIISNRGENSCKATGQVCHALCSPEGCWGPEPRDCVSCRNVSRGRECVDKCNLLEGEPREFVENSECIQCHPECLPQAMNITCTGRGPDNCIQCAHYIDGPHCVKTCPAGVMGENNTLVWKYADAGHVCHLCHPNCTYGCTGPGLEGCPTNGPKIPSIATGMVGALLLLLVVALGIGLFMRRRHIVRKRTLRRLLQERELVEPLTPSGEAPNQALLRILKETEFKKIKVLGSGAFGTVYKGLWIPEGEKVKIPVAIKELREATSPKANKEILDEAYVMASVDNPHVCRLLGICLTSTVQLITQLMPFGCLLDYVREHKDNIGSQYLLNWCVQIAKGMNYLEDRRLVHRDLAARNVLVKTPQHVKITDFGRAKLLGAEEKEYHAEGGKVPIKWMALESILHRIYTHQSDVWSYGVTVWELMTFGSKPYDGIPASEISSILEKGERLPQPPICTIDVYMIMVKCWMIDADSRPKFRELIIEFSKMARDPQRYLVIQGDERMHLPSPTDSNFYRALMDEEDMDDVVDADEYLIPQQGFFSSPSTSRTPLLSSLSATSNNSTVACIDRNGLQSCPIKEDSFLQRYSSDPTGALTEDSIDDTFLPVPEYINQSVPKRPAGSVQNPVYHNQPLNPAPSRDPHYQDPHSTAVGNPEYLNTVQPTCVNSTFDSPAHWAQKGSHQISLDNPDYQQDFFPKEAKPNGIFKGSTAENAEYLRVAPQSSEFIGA

| Compound | inhibition at 10 µM (CCRF-CEM) | inhibition at 10 µM (K-562) | inhibition at 10 µM (RPMI-8226) | inhibition at 10 µM (SR) | inhibition at 10 µM (A549/ATCC) | inhibition at 10 µM (EKVX) | inhibition at 10 µM (HOP-92) | inhibition at 10 µM (NCI-H226) | inhibition at 10 µM (HCT-116) | inhibition at 10 µM (HCT-15) | inhibition at 10 µM (SF-268) | inhibition at 10 µM (SF-295) | inhibition at 10 µM (SF-539) | inhibition at 10 µM (SNB-19) | inhibition at 10 µM (SNB-75) | inhibition at 10 µM (U251) | inhibition at 10 µM (MALME-3M) | inhibition at 10 µM (MDA-MB-435) | inhibition at 10 µM (SK-MEL-28) | inhibition at 10 µM (UACC-257) | further results |
| --- | --- | --- | --- | --- | --- | --- | --- | --- | --- | --- | --- | --- | --- | --- | --- | --- | --- | --- | --- | --- | --- |
| CCOC(=O)C1=C(N)N(c2ccc(Cl)cc2)C2=C(C(=O)CC(C)(C)C2)C1c1ccc(Cl)cc1 (racemic) [8e, (±)-Ethyl 2-amino-1,4-bis (4-chlorophenyl)-7,7-dimethyl-5-oxo-1,4,5,6,7,8-hexahydroquinoline-3-carboxylate] | 61% | 63% | 90% | 52% | 62% | 33% | < 10% | < 10% | 45% | 58% | 22% | 33% | 26% | 31% | 27% | 31% | 39% | 54% | 26% | 56% | inhibition at 10 µM (IGROV1): 12%; inhibition at 10 µM (OVCAR-5): < 10%; inhibition at 10 µM (OVCAR-8): 30%; inhibition at 10 µM (SK-OV-3): < 10%; inhibition at 10 µM (ACHN): 32%; inhibition at 10 µM (PC-3): 58%; inhibition at 10 µM (DU-145): 12%; inhibition at 10 µM (MDA-MB-468): 33%; IC50 (EGFR^T790M): 693 ± 5 nM; IC50 (EGFR^L858R): 351 ± 2 nM; IC50 (EGFR^WT): 300 ± 120 nM |
| CCOC(=O)C1=C(N)N(c2ccc(Cl)cc2)C2=C(C(=O)CC(C)(C)C2)C1c1ccccc1Cl (racemic) [6c, (±)-Ethyl 2-amino-4–(2-chlorophenyl)-1–(4-chlorophenyl)-7,7-dimethyl-5-oxo-1,4,5,6,7,8-hexahydroquinoline-3-carboxylate] | 40% | < 10% | < 10% | < 10% | 51% | 30% | 29% | 25% | 66% | 62% | 23% | 27% | < 10% | 27% | 17% | 54% | 30% | 29% | < 10% | 50% | inhibition at 10 µM (IGROV1): < 10%; inhibition at 10 µM (OVCAR-5): < 10%; inhibition at 10 µM (OVCAR-8): 30%; inhibition at 10 µM (SK-OV-3): 29%; inhibition at 10 µM (ACHN): 40%; inhibition at 10 µM (PC-3): 76%; inhibition at 10 µM (DU-145): < 10%; inhibition at 10 µM (MDA-MB-468): 60%; IC50 (EGFR^T790M): 530 ± 4 nM; IC50 (EGFR^L858R): 500 ± 4 nM; IC50 (EGFR^WT): 277 ± 120 nM |
| CCOC(=O)C1=C(N)N(c2ccc(Cl)cc2)C2=C(C(=O)CC(C)(C)C2)C1c1ccccc1OC (racemic) [6i, (±)-Ethyl 2-amino-1–(4-chlorophenyl)-4–(2-methoxyphenyl)-7,7-dimethyl-5-oxo-1,4,5,6,7,8-hexahydroquinoline-3-carboxylate] | 56% | 66% | 73% | 64% | 52% | 44% | 12% | 30% | 65% | 59% | 27% | 41% | 31% | 28% | 18% | 28% | 40% | 51% | 36% | 44% | inhibition at 10 µM (IGROV1): 27%; inhibition at 10 µM (OVCAR-5): 15%; inhibition at 10 µM (OVCAR-8): 12%; inhibition at 10 µM (SK-OV-3): < 10%; inhibition at 10 µM (ACHN): 38%; inhibition at 10 µM (PC-3): 68%; inhibition at 10 µM (DU-145): < 10%; inhibition at 10 µM (MDA-MB-468): 39%; IC50 (EGFR^T790M): 450 ± 3 nM; IC50 (EGFR^L858R): 230 ± 1 nM; IC50 (EGFR^WT): 157 ± 30 nM |

From PMC10408569, “Recruitment of hexahydroquinoline as anticancer scaffold targeting inhibition of wild and mutants EGFR (EGFR^WT, EGFR^T790M, and EGFR^L858R)” (Journal of Enzyme Inhibition and Medicinal Chemistry, 2023)
